# Measured values as given in ChEMBL document CHEMBL3885861, “Open TG-GATES”.
# Species on record: Rattus norvegicus
# Experiment: Open TG-GATES - Regimen: Daily Repeat
# Format: toxicity, organism-based, Sprague-Dawley
# Design: regimen Daily Repeat, gender Male, age 6 weeks
# Settings: in vivo, sc, 0.02 mg/kg, route subcutaneous injection, dose 20 ug/Kg, dose level Middle; for APTT / Bas / Eos / Fbg / Hb / Ht / Lym / MCH / MCHC / MCV / Mono / Neu / PT / Plat / RBC / Ret / WBC: tissue Blood
# [1] = 72 h, tissue Kidney, time 3 day
# [2] = 72 h, tissue Plasma, time 3 day
smiles,measurement,setting,value
CC(=O)O.N=C(N)NCCC[C@@H](NC(=O)[C@@H]1CCCN1C(=O)[C@@H]1CSSCCC(=O)N[C@@H](Cc2ccc(O)cc2)C(=O)N[C@@H](Cc2ccccc2)C(=O)N[C@@H](CCC(N)=O)C(=O)N[C@@H](CC(N)=O)C(=O)N1)C(=O)NCC(N)=O [DESMOPRESSIN ACETATE],TERMINAL_BW,"72 h, time 3 day",235.6 g
same,APTT,"72 h, time 3 day",16.2 s
same,Bas,"72 h, time 3 day",0%
same,Eos,"72 h, time 3 day",1%
same,Fbg,"72 h, time 3 day",270.4 mg/dL
same,Hb,"72 h, time 3 day",13.3 g/dL
same,Ht,"72 h, time 3 day",40.4%
same,Lym,"72 h, time 3 day",69.8%
same,MCH,"72 h, time 3 day",21.6 pg
same,MCHC,"72 h, time 3 day",32.8%
same,MCV,"72 h, time 3 day",65.8 fL
same,Mono,"72 h, time 3 day",8.6%
same,Neu,"72 h, time 3 day",20.6%
same,PT,"72 h, time 3 day",11.8 s
same,Plat,"72 h, time 3 day",123.6 x10_4/uL
same,RBC,"72 h, time 3 day",613.8 x10_4/ul
same,Ret,"72 h, time 3 day",8%
same,WBC,"72 h, time 3 day",99.6 x10_2/uL
same,KIDNEY_L,[1],1.1 g
same,KIDNEY_R,[1],1.1 g
same,KIDNEY_TOTAL,[1],2.2 g
same,LIVER,"72 h, tissue Liver, time 3 day",10.9 g
same,A/G,[2],2
same,ALP,[2],1305 IU/L
same,ALT,[2],39 IU/L
same,AST,[2],72.8 IU/L
same,BUN,[2],16.2 mg/dL
same,CRE,[2],0.4 mg/dL
same,Ca,[2],11.4 mg/dL
same,Cl,[2],103 meq/L
same,DBIL,[2],0.012 mg/dL
same,GLC,[2],193 mg/dL
same,IP,[2],7.9 mg/dL
same,K,[2],5.3 meq/L
same,LDH,[2],205.2 IU/L
same,Na,[2],135 meq/L
same,PL,[2],157.2 mg/dL
same,RALB,[2],3.8 g/dL
same,TBIL,[2],0.04 mg/dL
same,TC,[2],87.6 mg/dL
same,TG,[2],108.8 mg/dL
same,TP,[2],5.7 g/dL
same,gamma-GTP,[2],1 IU/L
same,TERMINAL_BW,"[…], time 7 day",276.7 g
same,TERMINAL_BW,"[…], time 14 day",325 g
same,TERMINAL_BW,"[…], time 28 day",428.4 g
same,APTT,"[…], time 7 day",16.6 s
same,Bas,"[…], time 7 day",0%
same,Eos,"[…], time 7 day",1.2%
same,Fbg,"[…], time 7 day",263.2 mg/dL
same,Hb,"[…], time 7 day",13 g/dL
same,Ht,"[…], time 7 day",39.8%
same,Lym,"[…], time 7 day",72.2%
same,MCH,"[…], time 7 day",20.8 pg
same,MCHC,"[…], time 7 day",32.7%
same,MCV,"[…], time 7 day",63.6 fL
same,Mono,"[…], time 7 day",6.8%
same,Neu,"[…], time 7 day",20%
same,PT,"[…], time 7 day",12.2 s
same,Plat,"[…], time 7 day",125.6 x10_4/uL
same,RBC,"[…], time 7 day",627 x10_4/ul
same,Ret,"[…], time 7 day",7.1%
same,WBC,"[…], time 7 day",114 x10_2/uL
same,APTT,"[…], time 14 day",17.5 s
same,Bas,"[…], time 14 day",0%
same,Eos,"[…], time 14 day",1.2%
same,Fbg,"[…], time 14 day",253.6 mg/dL
same,Hb,"[…], time 14 day",14.2 g/dL
same,Ht,"[…], time 14 day",43.2%
same,Lym,"[…], time 14 day",72%
same,MCH,"[…], time 14 day",20 pg
same,MCHC,"[…], time 14 day",32.8%
same,MCV,"[…], time 14 day",60.9 fL
same,Mono,"[…], time 14 day",10.6%
same,Neu,"[…], time 14 day",16.6%
same,PT,"[…], time 14 day",12.2 s
same,Plat,"[…], time 14 day",123.2 x10_4/uL
same,RBC,"[…], time 14 day",710.2 x10_4/ul
same,Ret,"[…], time 14 day",6%
same,WBC,"[…], time 14 day",101.6 x10_2/uL
same,APTT,"[…], time 28 day",16.7 s
same,Bas,"[…], time 28 day",0%
same,Eos,"[…], time 28 day",0.8%
same,Fbg,"[…], time 28 day",250 mg/dL
same,Hb,"[…], time 28 day",15 g/dL
same,Ht,"[…], time 28 day",46.3%
